Assay results published in patent publication US20170369807A1, “Ionic Liquid, Lubricant, and Magnetic Recording Medium” (Dexerials Corporation, priority 2016, published 2017).

Experiments:
[1] = in acetonitrile; cited from earlier work
[2] = Measurement of thermal stability (TG/DTA); settings: for Weight reduction temperature 5% / Weight reduction temperature 10% / Weight reduction temperature 20%: TG/DTA, 30° C. to 600° C., 10° C./min, air 200 mL/min; for thermal stability (in words): compared with Z-DOL and Z-TETRAOL
[3] = Solubility test to solvents (visual observation); settings: ultrasonic waves 5 minutes, left 1 day, visually observed, listed as Example 3A, ammonium
Procedure: To a predetermined amount of Vertrel XF, n-hexane, or ethanol, the ionic liquid was added. Ultrasonic waves were applied to the resultant mixture for 5 minutes, followed by leaving the mixture to stand for 1 day. The solubility was visually observed.
After applying ultrasonic waves to the resultant for 5 minutes, the resultant was left to stand for 1 day. Thereafter, the solubility was visually observed and evaluated based on the following evaluation criteria.
Similarly, after applying ultrasonic waves to the resultant for 5 minutes, the resultant was left to stand for 1 day. Thereafter, the solubility was visually observed and evaluated based on the following evaluation criteria.
Note that, the solubility was visually observed, and it was judged as soluble when it was transparent. Moreover, it was judged as not soluble (insoluble) when it was opaque or insoluble components were observed.

For `O=S(=O)(O)C(F)(F)F` [trifluoromethanesulfonic acid], which pKa [1] is on record?
The pKa was 0.7.

Which results are given for `CCCCCCCCCCCCCCCCCCN.O=S(=O)(NS(=O)(=O)C(F)(F)C(F)(F)C(F)(F)C(F)(F)F)C(F)(F)C(F)(F)C(F)(F)C(F)(F)F` [Comp. Ex. 2A, bis(nonafluorobutanesulfonyl)imide-octadecyl ammonium]?
Weight reduction temperature 5% [2]: 311.8 °C; Weight reduction temperature 10% [2]: 329.8 °C; Weight reduction temperature 20% [2]: 348.0 °C

With `CCCCCCCCCCCCN(CCCCCCCCCCCC)CCCCCCCCCCCC` [Ex. 3A, trifluoromethanesulfonic acid-N,N,N-tridodecyl ammonium] as the molecule, how does the “thermal stability improved compared with Z-DOL” value ([2]; compared with Z-DOL (Comparative Example 7C)) read?
The value was at least 120 °C.

And the “thermal stability improved compared with Z-TETRAOL” value ([2]; compared with Z-TETRAOL (Comparative Example 8C))?
Its value is at least 45 °C.

What about the “Solubility Fluorine-based solvent” value ([3]; Vertrel XF [CF3(CHF)2CF2CF3], 25° C.) of the same molecule?
Its value is at least 0.2 % by mass.

And the “Solubility Ethanol” value ([3]; ethanol)?
The value was at least 0.5 % by mass.

What about the “Solubility n-Hexane” value ([3]; n-hexane, 25° C.) of the same molecule?
The value was at least 0.5 % by mass.

With `O=S1(=O)NS(=O)(=O)C(F)(F)C(F)(F)C1(F)F` [hexafluorocyclopropane-1,3-bis(sulfonyl)imide] as the molecule, how does the pKa [1] read?
The pKa was −0.8.

With “bis(nonafluorobutanesulfonyl)imide-N,N-dimethyl-dodecyl ammonium [Ex. 2A]” as the molecule, how does the “Weight reduction temperature 5%” value [2] read?
The value was 308.5 °C.

And the “Weight reduction temperature 10%” value [2]?
The value was 331.5 °C.

And the “Weight reduction temperature 20%” value [2]?
Its value is 353.4 °C.

Which pKa [1] does the source give for `O=C(O)C(F)(F)C(F)(F)C(F)(F)C(F)(F)C(F)(F)C(F)(F)C(F)(F)F` [pentadecafluorooctanoic acid] here?
The pKa was 12.7.

For `O=S(=O)(NS(=O)(=O)C(F)(F)C(F)(F)C(F)(F)C(F)(F)F)C(F)(F)C(F)(F)C(F)(F)C(F)(F)F` [bis(nonafluorobutanesulfonyl)imide], which pKa [1] is on record?
Its pKa is 0.0.

With `CCCCCCCCCCCCCCCCCCN.O=S1(=O)NS(=O)(=O)C(F)(F)C(F)(F)C1(F)F` [Comp. Ex. 3A, hexafluorocyclopropane-1,3-bis(sulfonyl)imide-octadecyl ammonium] as the molecule, how does the “Weight reduction temperature 5%” value [2] read?
Its value is 329.6 °C.

And the “Weight reduction temperature 10%” value [2]?
The value was 347.0 °C.

What about the “Weight reduction temperature 20%” value [2] of the same molecule?
The value was 365.1 °C.

With `CCCCCCCCCCCCCCCCCCN(C)C.O=S(=O)(NS(=O)(=O)C(F)(F)C(F)(F)C(F)(F)C(F)(F)F)C(F)(F)C(F)(F)C(F)(F)C(F)(F)F` [Ex. 1A, bis(nonafluorobutanesulfonyl)imide-N,N-dimethyl-octadecyl ammonium] as the molecule, how does the “Weight reduction temperature 5%” value [2] read?
Its value is 315.7 °C.

And the “Weight reduction temperature 10%” value [2]?
Its value is 337.0 °C.

What about the “Weight reduction temperature 20%” value [2] of the same molecule?
Its value is 356.7 °C.

Which results are given for “nonafluorobutanesulfonic acid-trimethyloctadecyl ammonium [Comp. Ex. 5A]”?
Weight reduction temperature 5% [2]: 340.5 °C; Weight reduction temperature 10% [2]: 356.2 °C; Weight reduction temperature 20% [2]: 371.9 °C; thermal stability (in words) [2]: high

Which pKa [1] does the source give for perfluorocyclopropane sulfoimide here?
The pKa was −0.8.

With `F[B-](F)(F)F.[H+]` [tetrafluoroboric acid] as the molecule, how does the pKa [1] read?
The pKa was 1.8.

What does the source list for “nonafluorobutanesulfonic acid-octadecyl ammonium [Comp. Ex. 1A]”?
Weight reduction temperature 5% [2]: 338.8 °C; Weight reduction temperature 10% [2]: 355.2 °C; Weight reduction temperature 20% [2]: 370.4 °C; thermal stability (in words) [2]: high

For `O=[N+]([O-])O` [nitric acid], which pKa [1] is on record?
The pKa was 9.4.

Which results are given for “pentadecafluorooctanoic acid octadecyl ammonium [Comp. Ex. 6A]”?
Weight reduction temperature 5% [2]: 206.9 °C; Weight reduction temperature 10% [2]: 215.8 °C; Weight reduction temperature 20% [2]: 223.4 °C; thermal stability (in words) [2]: lacked thermal stability

Which “Weight reduction temperature 5%” value [2] does the source give for “nonafluorobutanesulfonic acid-N-methyloctadecyl ammonium [Comp. Ex. 4A]” here?
The value was 346.8 °C.

What about the “Weight reduction temperature 10%” value [2] of the same molecule?
The value was 364.0 °C.

And the “Weight reduction temperature 20%” value [2]?
Its value is 381.1 °C.

And the “thermal stability (in words)” value [2]?
Its value is “high”.

With `O=S(=O)(O)C(F)(F)C(F)(F)C(F)(F)C(F)(F)F` [nonafluorobutanesulfonic acid] as the molecule, how does the pKa [1] read?
Its pKa is 0.7.
